How the values were obtained:
[1] = instrument: DT, single field, calibrated with Agilent tune mix (Agilent)
[2] = instrument: DT, stepped-field

Row | Compound | collision cross section (N2) ([2]; [M+Na]+) | other results
1 | CCCC/C=C\CCCCCCCC(=O)OC[C@H](COP(=O)(O)OCCN)OC(=O)CCCCCCCCC/C=C\C/C=C\CCCCC [PE(34:3)] | 276.1 Å² | collision cross section (N2) ([1]; [M+H]+): 270.9 Å²; collision cross section (N2) ([1]; [M-H]-): 260.2 Å²
2 | CCCC/C=C\CCCCCCCC(=O)OC[C@H](COP(=O)(O)OCCN)OC(=O)CCCCCC/C=C\C/C=C\C/C=C\CCCCC [PE(34:4)] | 273.6 Å² | 
3 | CCCCC/C=C\C/C=C\C/C=C\CCCCC(=O)OC[C@H](COP(=O)(O)OCCN)OC(=O)CCCCCCC/C=C\CCCCCCCCC [PE(37:4)] |  | collision cross section (N2) ([2]; [M+K]+): 284.7 Å²
4 | CCCCC/C=C\C/C=C\C/C=C\C/C=C\CCCC(=O)O[C@H](COC(=O)CCCC/C=C\C/C=C\C/C=C\CCCCC)COP(=O)(O)OCCN [PE(38:7)] | 283.7 Å² | collision cross section (N2) ([2]; [M+K]+): 287 Å²
5 | CCCCC/C=C\C/C=C\CCCCCCCC(=O)O[C@H](COCCCCCCCCCCCCCCCCCC)COP(=O)(O)OCCN [PE(o36:2)] | 287.3 Å² | 
6 | CC/C=C\C/C=C\C/C=C\C/C=C\CCCCC(=O)OC[C@H](COP(=O)(O)OC[C@H](N)C(=O)O)OC(=O)CCCCC/C=C\C/C=C\C/C=C\C/C=C\CCCCC [PS(40:8)] | 293.6 Å² | 
7 | CCCCC/C=C\C/C=C\C/C=C\C/C=C\CCCCCC(=O)OC[C@H](COP(=O)(O)OC[C@H](N)C(=O)O)OC(=O)CCC/C=C\C/C=C\C/C=C\C/C=C\CCCCC [PS(42:8)] | 301.3 Å² | 
8 | CC/C=C\C/C=C\C/C=C\C/C=C\C/C=C\C/C=C\CCC(=O)O[C@H](COC(=O)CCC/C=C\C/C=C\C/C=C\C/C=C\CCCCC)COP(=O)(O)OC[C@H](N)C(=O)O [PS(42:10)] | 297.1 Å² | 
9 | CC/C=C\C/C=C\C/C=C\C/C=C\C/C=C\C/C=C\CCC(=O)OC[C@H](COP(=O)(O)OC[C@H](N)C(=O)O)OC(=O)CCC/C=C\C/C=C\C/C=C\C/C=C\C/C=C\CC [PS(42:11)] | 294.2 Å² | 
10 | CC=CCC=CCC=CCC=CCC=CCC=CCC=CCC=CCC(=O)OC[C@H](COP(=O)(O)OC[C@H](N)C(=O)O)OC(=O)CC=CCC=CCC=CCC=CCC=CCC=CCC=CCC=CC [PS(52:16)] | 322.2 Å² | 
11 | NCCCC[C@H](NC(=O)[C@H](CC(N)=O)NC(=O)[C@H](CCC(=O)O)NC(=O)[C@@H](N)CCC(N)=O)C(=O)O [QENK] |  | collision cross section (N2) ([2]; [M+H]+): 219 Å²
12 | N=C(N)NCCC[C@H](NC(=O)CNC(=O)[C@H](CC(=O)O)NC(=O)[C@@H](N)CO)C(=O)NCC(=O)O [SDGRG] | 203.5 Å² | collision cross section (N2) ([2]; [M+H]+): 204.6 Å²; collision cross section (N2) ([2]; [M+K]+): 205.4 Å²
13 | CCCCCCCCCCCCCCCCCCCCCC(=O)N[C@@H](COP(=O)([O-])OCC[N+](C)(C)C)[C@H](O)CCCCCCCCCCCCCCC [SM(40:0)] | 305.7 Å² | 
14 | CCCCCCCCCCCCC=CC[C@@H](O)[C@H](COP(=O)([O-])OCC[N+](C)(C)C)NC(=O)CC=CCCCCCCCCCCCCCCCCCCC [SM(41:2)] | 303.9 Å² | 
15 | CCCCCCCCCCCCC=CC[C@@H](O)[C@H](COP(=O)([O-])OCC[N+](C)(C)C)NC(=O)CC=CCCCCCCCCCCCCCCCCCCCCC [SM(43:2)] | 311.5 Å² | 
16 | CCCCCCCCCCCCC=CC[C@@H](O)[C@H](COP(=O)([O-])OCC[N+](C)(C)C)NC(=O)CC=CCC=CCCCCCCCCCCCCCCCCCC [SM(43:3)] | 309.6 Å² | 
17 | OC[C@@H](O)[C@@H](O)[C@H](O)[C@@H](O)CO [Sorbitol] | 139.4 Å² | 
18 | CCCC[N+](CCCC)(CCCC)CCCC [TAA4] |  | collision cross section (N2) ([2]; [M]+): 166.6 Å²
19 | CCCCC[N+](CCCCC)(CCCCC)CCCCC [TAA5] |  | collision cross section (N2) ([2]; [M]+): 190.1 Å²
20 | CCCCCCCCCCCC[N+](CCCCCCCCCCCC)(CCCCCCCCCCCC)CCCCCCCCCCCC [TAA12] |  | collision cross section (N2) ([2]; [M]+): 319 Å²
21 | CC(C)[C@H](N)C(=O)N[C@@H](CCC(=O)O)C(=O)N[C@@H](CC(=O)O)C(=O)N[C@H](C(=O)N[C@@H](CC(=O)O)C(=O)N[C@@H](CCCNC(=N)N)C(=O)O)C(C)C [VEDVDR] |  | collision cross section (N2) ([2]; [M+H]+): 256.6 Å²
22 | CCC(C)[C@H](NC(=O)CNC(=O)[C@H](CC(C)C)NC(=O)[C@@H](N)C(C)C)C(=O)N[C@@H](CC(=O)O)C(=O)NCC(=O)NCC(=O)N[C@@H](CCC(=O)O)C(=O)NCC(=O)N[C@@H](CCCCN)C(=O)O (stereo not given in full) [VLGIDGGEGK] |  | collision cross section (N2) ([2]; [M+H]+): 291.2 Å²
23 | CSCC[C@H](NC(=O)[C@@H](N)Cc1c[nH]c2ccccc12)C(=O)NCC(=O)N[C@@H](CCCCN)C(=O)O [WMGK] |  | collision cross section (N2) ([2]; [M+H]+): 220.1 Å²
24 | CCC(C)[C@H](NC(=O)[C@H](CCC(=O)O)NC(=O)[C@H](Cc1ccc(O)cc1)NC(=O)[C@H](CC(C)C)NC(=O)[C@@H](N)Cc1ccc(O)cc1)C(=O)N[C@@H](C)C(=O)N[C@@H](CCCNC(=N)N)C(=O)O (stereo not given in full) [YLYEIAR] |  | collision cross section (N2) ([2]; [M+H]+): 305 Å²
25 | CC(C)[C@H](NC(=O)[C@@H](N)Cc1ccc(O)cc1)C(=O)N[C@@H](CCCNC(=N)N)C(=O)O [YVR] |  | collision cross section (N2) ([2]; [M+H]+): 207 Å²

From the C3SDB collision cross section collection
